# Laboratory results: patent US11040028B2, “Penicinotam derivative, preparation method and use thereof” (OCEAN UNIVERSITY OF CHINA, priority 2017, dated 2021)
# Experiments:
# Format in all cases: cell-based
# BHK-21 cells = assay: Anti-fibrosis activity test: inhibition of BHK-21 cell proliferation (CCK-8); conditions: Mesocricetus auratus, BHK-21, 48 h
# Outline: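 Proliferation of BHK-21 cells is measured by CCK-8 at 450 nm following 48 h compound exposure at several concentrations. Inhibition is expressed relative to blank control and IC50 is computed from it.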
# [1] = test system: human lung fibroblasts HFL1; assay: Anti-fibrosis activity test: inhibition of proliferation of human lung fibroblasts HFL1 (CCK-8); conditions: Homo sapiens, HFL1, 48 h
# Outline: (§1)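 Seed 2×10^4 cells/mL; adhere 24 h, 37° C/5% CO2. Compounds, serial concentrations, triplicate, 48 h. CCK-8 2 h, A450. IR=(1−Ai/Ao)×100% vs blank; IC50 fitted. Pirfenidone as positive control.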
# [2] = test system: human hepatic stellate cells LX-2; assay: Anti-fibrosis activity test: inhibition of proliferation of human hepatic stellate cells LX-2 (CCK-8); conditions: Homo sapiens, 48 h
# Outline: as §1
# [3] = test system: human fibrosarcoma cells HT-1080; assay: Anti-fibrosis activity test: inhibition of proliferation of human fibrosarcoma cells HT-1080 (CCK-8); conditions: Homo sapiens, HT-1080, 48 h
# Outline: as §1
# [4] = test system: human dermal fibroblasts CCC-ESF-1; assay: Anti-fibrosis activity test: inhibition of proliferation of human dermal fibroblasts CCC-ESF-1 (CCK-8); conditions: Fibroblast
# Outline: as §1
# [5] = test system: human embryonic lung fibroblast IMR-90; assay: Anti-fibrosis activity test: inhibition of proliferation of human embryonic lung fibroblast IMR-90 (CCK-8)
# Outline: as §1
# [6] = test system: cardiac fibroblast RAT-iCell-C002; assay: Anti-fibrosis activity test: inhibition of proliferation of cardiac fibroblast RAT-iCell-C002 (CCK-8); conditions: Cardiac fibroblast, 48 h
# Outline: as §1
# NF-κB = assay: Immunological activity test: inhibition of NF-κB activity; conditions: initial concentration of 30 μM; a/b isomers given as first/second symbol; read-out: IC50 (μM), inhibitory activity against NF-κB
# Source text: Main references for immunological activity test of the compounds of the present application includes: Vogl, S.; Atanasov, A. G.; Binder, M.; Bulusu, M.; Zehl, M.; Fakhrudin, N.; Heiss, E. H.; Picker, P.; Wawrosch, C.; Saukel, J.; Reznicek, G.; Urban, E.; Bochkov, V.; Dirsch, V. M.; Kopp, B. J. Evid-Based Complementary Alern. Med. 2013, ID 395316. Commercially available parthenolide was utilized as a positive control.
# The ability of the compounds of the present application to inhibit NF-κB activity was tested at an initial concentration of 30 μM.
# The assay data for the compounds of the present application were further analyzed to determine their IC50 values.
# [7] = test system: mouse macrophages (RAW264.7); assay: Lipopolysaccharide-induced NO secretion in macrophages (Griess); conditions: Mus musculus, RAW264.7, 24 h, RAW264.7, LPS 1 μg/ml, a/b isomers given as first/second symbol, read-out: IC50 (μM), inhibition of lipopolysaccharide-induced NO secretion in macrophages
# Outline: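 LPS 1 μg/ml, 24 h, RAW264.7 (DMEM/10% FBS); cpds at varied concs. Supernatant NO by Griess, A548; % inhibition vs blank medium.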
# [8] = CCK-8, 48 hours after administration
# [9] = human lung fibroblasts HFL1, CCK-8, 48 hours
# [10] = human hepatic stellate cells LX-2, CCK-8, 48 hours
# [11] = human fibrosarcoma cells HT-1080, CCK-8, 48 hours
# [12] = human dermal fibroblasts CCC-ESF-1, CCK-8, 48 hours
# [13] = human embryonic lung fibroblast IMR-90, CCK-8, 48 hours
# [14] = cardiac fibroblast RAT-iCell-C002, CCK-8, 48 hours
# [15] = Homo sapiens, CCC-ESF-1 cells, 48 h, CCK-8
# [16] = Homo sapiens, IMR-90 cells, 48 h, CCK-8
SMILES,IC50 (BHK-21 cells; [8]) [mM],"IC50 [1, 9] [mM]","IC50 [2, 10] [mM]","IC50 [3, 11] [mM]","IC50 [4, 12] [mM]","IC50 [5, 13] [mM]","IC50 [6, 14] [mM]",IC50 (NF-κB) [µM],IC50 [7] [µM],"IC50 (BHK-21 cells; 48 h, CCK-8) [mM]","IC50 ([1]; HFL1 cells, 48 h, CCK-8) [mM]","IC50 ([2]; LX-2, 48 h, LX-2 cells, CCK-8) [mM]","IC50 ([3]; HT-1080 cells, 48 h, CCK-8) [mM]","IC50 [4, 15] [mM]","IC50 [5, 16] [mM]","IC50 ([6]; RAT-iCell-C002 cells, CCK-8) [mM]"
"CC(C)n1c2c(c(=O)c3ccccc31)C(=O)n1cccc1-2 [Compound 5a, 4-Isopropyl-9H-pyrrolizino[1,2-b]quinoline-9,10(4H)-dione]",5 to 20,0.05 to 5,0.05 to 5,5 to 20,0.05 to 5,0.05 to 5,< 0.05,10 to 50,–,–,–,–,–,–,–,–
"N#Cc1ccc2c(=O)c3c(n(Cc4ccc(F)cc4)c2c1)-c1cccn1C3=O [Compound 514a, 4-(4-Fluorobenzyl)-9,10-dioxo-4,10-dihydro-9H-pyrrolizino[1,2-b]quinoline-6-carbonitrile]",< 0.05,0.05 to 5,0.05 to 5,0.05 to 5,0.05 to 5,0.05 to 5,0.05 to 5,1 to 10,–,–,–,–,–,–,–,–
"N#Cc1ccc2nc3c(c(OCc4ccc(-c5ccccc5)cc4)c2c1)C(=O)n1cccc1-3 [Compound 628b, 9-([1,1′-biphenyl]-4-ylmethoxy)-10-oxo-10H-pyrrolizino[1,2-b]quinoline-7-carbonitrile]",0.05 to 5,0.05 to 5,0.05 to 5,0.05 to 5,0.05 to 5,0.05 to 5,0.05 to 5,1 to 10,–,–,–,–,–,–,–,–
"O=C1c2c(nc3ccccc3c2Oc2ccc(F)cc2)-c2cccn21 [Compound 18b, 9-(4-fluorophenoxy)-10H-pyrrolizino[1,2-b]quinolin-10-one]",0.05 to 5,0.05 to 5,0.05 to 5,0.05 to 5,0.05 to 5,0.05 to 5,0.05 to 5,1 to 10,–,–,–,–,–,–,–,–
"N#Cc1ccc2c(c1)c(=O)c1c(n2Cc2ccc(-c3ccccc3C#N)cc2)-c2cccn2C1=O [Compound 629a, 4-((2′-Cyano-[1,1′-biphenyl]-4-yl)methyl)-9,10-dioxo-4,10-dihydro-9H-pyrrolizino[1,2-b]quinoline-7-carbonitrile]",< 0.05,0.05 to 5,0.05 to 5,0.05 to 5,< 0.05,0.05 to 5,0.05 to 5,1 to 10,–,–,–,–,–,–,–,–
"N#Cc1ccc2c(c1)c(=O)c1c(n2Cc2ccc(Cl)cc2)-c2cccn2C1=O [Compound 625a, 4-(4-Chlorobenzyl)-9,10-dioxo-4,10-dihydro-9H-pyrrolizino[1,2-b]quinoline-7-carbonitrile]",0.05 to 5,0.05 to 5,0.05 to 5,0.05 to 5,0.05 to 5,0.05 to 5,0.05 to 5,1 to 10,–,–,–,–,–,–,–,–
"O=C1c2c(nc3cc(N4CCNCC4)ccc3c2OCc2ccc(F)cc2F)-c2cccn21 [Compound 622b, 9-((2,4-difluorobenzyl)oxy)-6-(piperazin-1-yl)-10H-pyrrolizino[1,2-b]quinolin-10-one]",0.05 to 5,–,–,0.05 to 5,0.05 to 5,0.05 to 5,0.05 to 5,1 to 10,–,–,–,–,–,–,–,–
"O=C1c2c(nc3cc(N4CCNCC4)ccc3c2OCc2cc(C(F)(F)F)cc(C(F)(F)F)c2)-c2cccn21 [Compound 631b, 9-((3,5-bis(trifluoromethyl)benzyl)oxy)-6-(piperazin-1-yl)-10H-pyrrolizino[,2-b]quinolin-10-one]",–,–,–,–,–,–,–,0.1 to 1,–,–,–,–,–,–,–,–
"O=C1c2c(n(Cc3ccc(F)cc3F)c3cc(N4CCNCC4)ccc3c2=O)-c2cccn21 [Compound 622a, 4-(2,4-Difluorobenzyl)-6-(piperazin-1-yl)-9H-pyrrolizino[1,2-b]quinoline-9,10(4H)-dione]",0.05 to 5,0.05 to 5,–,0.05 to 5,0.05 to 5,0.05 to 5,0.05 to 5,1 to 10,–,–,–,–,–,–,–,–
"O=C1c2c(nc3cc(N4CCNCC4)c(F)cc3c2OC2CC2)-c2cccn21 [Compound 340b, 9-cyclopropoxy-7-fluoro-6-(piperazin-1-yl)-10H-pyrrolizino[1,2-b]quinolin-10-one]",0.05 to 5,0.05 to 5,0.05 to 5,0.05 to 5,0.05 to 5,0.05 to 5,0.05 to 5,–,1 to 10,–,–,–,–,–,–,–
"CC(C)Oc1c2c(nc3cc(N4CCNCC4)c(F)cc13)-c1cccn1C2=O [Compound 331b, 7-fluoro-9-isopropoxy-6-(piperazin-1-yl)-10H-pyrrolizino[1,2-b]quinolin-10-one]",0.05 to 5,0.05 to 5,0.05 to 5,< 0.05,0.05 to 5,0.05 to 5,0.05 to 5,–,1 to 10,–,–,–,–,–,–,–
"O=C1c2c(c(=O)c3ccccc3n2Cc2ccc(-c3ccccc3)cc2)-c2cccn21 [Compound 796a, 6-([1,1′-Biphenyl]-4-ylmethyl)-5H-pyrrolizino[2,1-b]quinoline-5,11(6H)-dione]",–,–,–,–,–,–,–,–,1 to 10,0.05 to 5,0.05 to 5,0.05 to 5,0.05 to 5,0.05 to 5,0.05 to 5,0.05 to 5
"N#Cc1ccccc1-c1ccc(Cn2c3c(c(=O)c4ccccc42)-c2cccn2C3=O)cc1 [Compound 795a, 4′-((5,11-Dioxo-5,11-dihydro-6H-pyrrolizino[2,1-b]quinolin-6-yl)methyl)-[1,1′-biphenyl]-2-carbonitrile]",–,–,–,–,–,–,–,–,1 to 10,0.05 to 5,0.05 to 5,0.05 to 5,0.05 to 5,0.05 to 5,0.05 to 5,0.05 to 5
"O=C1c2c(c(=O)c3ccccc3n2CCCN2CCNCC2)-c2cccn21 [Compound 793a, 6-(3-(Piperazin-1-yl)propyl)-5H-pyrrolizino[2,1-b]quinoline-5,11(6H)-dione]",–,–,–,–,–,–,–,–,0.1 to 1,0.05 to 5,0.05 to 5,0.05 to 5,0.05 to 5,0.05 to 5,0.05 to 5,0.05 to 5
"O=C1c2c(nc3ccc(F)cc3c2Oc2ccc(Cl)cc2)-c2cccn21 [Compound 133b, 9-(4-chlorophenoxy)-7-fluoro-10H-pyrrolizino[1,2-b]quinolin-10-one]",0.05 to 5,0.05 to 5,0.05 to 5,0.05 to 5,0.05 to 5,0.05 to 5,0.05 to 5,–,1 to 10,–,–,–,–,–,–,–
"O=C1c2c(nc3c(F)cccc3c2OCc2ccc(F)cc2)-c2cccn21 [Compound 452b, 5-fluoro-9-((4-fluorobenzyl)oxy)-10H-pyrrolizino[1,2-b]quinolin-10-one]",0.05 to 5,0.05 to 5,0.05 to 5,0.05 to 5,0.05 to 5,0.05 to 5,0.05 to 5,–,1 to 10,–,–,–,–,–,–,–
"O=C1c2c(nc3ccc(F)cc3c2OC2CC2)-c2cccn21 [Compound 144b, 9-cyclopropoxy-7-fluoro-10H-pyrrolizino[1,2-b]quinolin-10-one]",0.05 to 5,0.05 to 5,< 0.05,0.05 to 5,0.05 to 5,0.05 to 5,0.05 to 5,–,1 to 10,–,–,–,–,–,–,–
"O=C1c2c(n(Cc3ccccc3Cl)c3c(C(F)(F)F)cccc3c2=O)-c2cccn21 [Compound 457a, 4-(2-Chlorobenzyl)-5-(trifluoromethyl)-9H-pyrrolizino[1,2-b]quinoline-9,10(4H)-dione]",0.05 to 5,0.05 to 5,< 0.05,0.05 to 5,0.05 to 5,0.05 to 5,0.05 to 5,–,1 to 10,–,–,–,–,–,–,–
"O=C1c2c(nc3cccc(F)c3c2O)-c2cccn21 [Compound 467b, 8-fluoro-9-hydroxy-10H-pyrrolizino[1,2-b]quinolin-10-one]",0.05 to 5,0.05 to 5,0.05 to 5,0.05 to 5,0.05 to 5,0.05 to 5,0.05 to 5,–,1 to 10,–,–,–,–,–,–,–
